Measured values as given in BindingDB's records for patent US9556111 (UNIVERSITETET I OSLO, 2017).

Target: A-kinase anchor protein 7 isoform gamma (Human, UniProt Q9P0M2)
Assay: Binding Assay
Procedure: Stable and optimal assay conditions were determined by cross-titrating GST-AKAP18δ and biotinylated PLB using 10 μg/ml glutathione acceptor beads and 10 μg/ml streptavidin donor beads in an AlphaScreen assay. The excitation wavelength was 680 nm, with the emission wavelength being 520-560 nm. Signal intensity in each well was registered and the optimal concentration to use was chosen to be the concentration prior to the peak of the signal.

Sequence of A-kinase anchor protein 7 isoform gamma (Q9P0M2 whole entry, canonical isoform): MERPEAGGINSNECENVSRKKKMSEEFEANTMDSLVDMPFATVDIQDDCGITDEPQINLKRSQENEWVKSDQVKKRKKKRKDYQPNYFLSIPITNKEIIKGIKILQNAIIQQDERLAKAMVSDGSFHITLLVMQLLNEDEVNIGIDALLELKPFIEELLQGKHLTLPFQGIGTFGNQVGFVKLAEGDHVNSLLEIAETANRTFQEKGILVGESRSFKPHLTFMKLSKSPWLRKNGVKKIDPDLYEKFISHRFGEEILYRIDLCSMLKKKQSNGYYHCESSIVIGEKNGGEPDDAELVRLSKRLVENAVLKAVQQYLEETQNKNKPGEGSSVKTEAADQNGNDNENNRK

For `Cc1ccc(NC(=O)Nc2ccc(CN(Cc3ccc(NC(=O)Nc4ccc(C)cc4)cc3)Cc3ccc(NC(=O)Nc4ccc(C)cc4)cc3)cc2)cc1` [US9556111, Table 1.20], the EC50 was 5.2 µM.
